Key:
[1] = molecular target: OGG1 (Homo sapiens (Human), UniProt O15527); assay: In vitro OGG1 activity assay; format: biochemical; details: 800 pM OGG1 enzyme, 2 nM human APEX1, 10 nM 8-oxoA:C substrate
In short: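 Read-out is fluorescein fluorescence, with compounds in DMSO added first, then enzyme and substrate. OGG1 excises its substrate base from a quenched fluorophore-labelled duplex, and surplus APEX1 cuts the resulting apurinic site. The duplex then melts and fluorescence rises in proportion to glycosylase activity.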

[2] = test system: MLE12 cells; assay: Cell viability assay in MLE12 cells (resazurin); format: cell-based, mouse; details: Mus musculus, MLE12, 24 h, TNF-α 20 ng/ml, resazurin added after 24 hours culture
In short: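 MLE12 cells (7500 cells/well) were seeded onto 11-point duplicate compound dose-responses, with TNF-α (final 20 ng/ml) added after 1 hour at 37° C. After 24 hours, resazurin was added for 6 hours and resorufin fluorescence read (ex544 nm/em595 nm). EC50 values were calculated by curve fitting.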

[3] = test system: CCL2; assay: Mouse CCL2 assay in MLE12 cells; format: cell-based; details: Mus musculus, MLE12, 30 h, MLE12 cells; TNF-α 20 ng/ml; supernatant after 30 hours; HTRF; read-out: CCL2 (EC50)
In short: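 CCL2 in supernatants was quantified by two-antibody HTRF FRET, read at 620 and 665 nm after overnight RT incubation, with IC50 derived from delta ratios. Cells were SV40-transformed mouse MLE12, treated with duplicate 6-point compound series for 1 h before 30 h TNF-α (20 ng/ml final) stimulation.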

Chain of OGG1 (O15527 whole entry): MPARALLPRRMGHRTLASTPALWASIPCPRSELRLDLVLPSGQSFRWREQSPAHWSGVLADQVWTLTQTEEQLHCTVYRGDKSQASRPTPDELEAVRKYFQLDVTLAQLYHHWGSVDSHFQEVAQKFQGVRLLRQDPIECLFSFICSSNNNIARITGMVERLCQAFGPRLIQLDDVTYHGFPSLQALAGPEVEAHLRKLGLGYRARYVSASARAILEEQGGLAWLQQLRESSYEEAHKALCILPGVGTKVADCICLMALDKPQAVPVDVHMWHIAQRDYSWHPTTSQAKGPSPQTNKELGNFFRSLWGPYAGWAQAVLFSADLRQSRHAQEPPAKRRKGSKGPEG

SMILES | IC50 [1] | EC50 [3] | IC50 [2]
COc1cc(NC(=O)[C@H]2CC[C@@H](n3c(=O)[nH]c4c(NC(=O)c5cnco5)cccc43)CC2)ccc1C [Example 301, N-{2-Oxo-1-[cis-4-[(3-methoxy-4-methylphenyl)carbamoyl]cyclohexyl]-2,3-dihydro-1H-1,3-benzodiazol-4-yl}-1,3-oxazole-5-carboxamide] | 0.00691 µM | 43 µM | 16.2 µM
COc1cc(NC(=O)[C@H]2CC[C@@H](n3c(=O)[nH]c4c(N(C)CCCN)cccc43)CC2)ccc1C [Example 302, Cis-4-{4-[(3-aminopropyl)(methyl)amino]-2-oxo-2,3-dihydro-1H-1,3-benzodiazol-1-yl}-N-(3-methoxy-4-methylphenyl)cyclohexane-1-carboxamide] | 0.0164 µM | 27.2 µM | 14.4 µM
COc1cc(NC(=O)[C@H]2CC[C@@H](n3c(=O)[nH]c4c(N(C)CCCNC(=O)OC(C)(C)C)cccc43)CC2)ccc1C [Example 305, tert-Butyl N-{3-[methyl({2-oxo-1-[cis-4-[(3-methoxy-4-methylphenyl)carbamoyl]cyclohexyl]-2,3-dihydro-1H-1,3-benzodiazol-4-yl})amino]propyl}carbamate] | 0.251 µM | 8.11 µM | 4.88 µM
COc1cc(NC(=O)[C@H]2CC[C@@H](n3c(=O)[nH]c4c(OC5CCNCC5)cccc43)CC2)ccc1C [Example 307, Cis-N-(3-methoxy-4-methylphenyl)-4-[2-oxo-4-(piperidin-4-yloxy)-2,3-dihydro-1H-1,3-benzodiazol-1-yl]cyclohexane-1-carboxamide] | 0.0125 µM | 32 µM | 28.8 µM
COc1cc(NC(=O)[C@H]2CC[C@@H](n3c(=O)[nH]c4c(OCCN(C)C(=O)OC(C)(C)C)cccc43)CC2)ccc1C [Example 308, tert-Butyl N-methyl-N-[2-({2-oxo-1-[cis-4-[(3-methoxy-4-methylphenyl)carbamoyl]cyclohexyl]-2,3-dihydro-1H-1,3-benzodiazol-4-yl}oxy)ethyl]carbamate] | 0.157 µM | 2.04 µM | 0.215 µM
COc1cc(NC(=O)[C@H]2CC[C@@H](n3c(=O)[nH]c4c(N5CCCC5)cccc43)CC2)ccc1C [Example 310, Cis-N-(3-methoxy-4-methylphenyl)-4-[2-oxo-4-(pyrrolidin-1-yl)-2,3-dihydro-1H-1,3-benzodiazol-1-yl]cyclohexane-1-carboxamide] | 0.0516 µM | 13.6 µM | 6.13 µM
COc1cc(NC(=O)[C@H]2CC[C@@H](n3c(=O)[nH]c4c(C5=CCNCC5)cccc43)CC2)ccc1C [Example 311, Cis-N-(3-methoxy-4-methylphenyl)-4-[2-oxo-4-(1,2,3,6-tetrahydropyridin-4-yl)-2,3-dihydro-1H-1,3-benzodiazol-1-yl]cyclohexane-1-carboxamide] | 0.00449 µM | 14.5 µM | 13.8 µM
COc1cc(NC(=O)[C@H]2CC[C@@H](n3c(=O)[nH]c4c(N5CCC(NC(C)=O)C5)cccc43)CC2)ccc1C (stereo partly drawn) [Example 313, Cis-4-[4-(3-acetamidopyrrolidin-1-yl)-2-oxo-2,3-dihydro-1H-1,3-benzodiazol-1-yl]-N-(3-methoxy-4-methylphenyl)cyclohexane-1-carboxamide] | 0.0213 µM | 35.1 µM | 19.5 µM

Compounds with a lower IC50 [1], results first:

IC50 [1] | EC50 [3] | SMILES | IC50 [2]
0.0038 µM | 10.6 µM | COc1cc(NC(=O)[C@H]2CC[C@@H](n3c(=O)[nH]c4c(OCCN(C)C)cccc43)CC2)ccc1C [Example 304, Cis-4-{4-[2-(dimethylamino)ethoxy]-2-oxo-2,3-dihydro-1H-1,3-benzodiazol-1-yl}-N-(3-methoxy-4-methylphenyl)cyclohexane-1-carboxamide] | 8.27 µM
0.00282 µM | 8.07 µM | COc1cc(NC(=O)[C@H]2CC[C@@H](n3c(=O)[nH]c4c(OCCCN(C)C)cccc43)CC2)ccc1C [Example 306, Cis-4-{4-[3-(dimethylamino)propoxy]-2-oxo-2,3-dihydro-1H-1,3-benzodiazol-1-yl}-N-(3-methoxy-4-methylphenyl)cyclohexane-1-carboxamide] | 7.15 µM
0.00326 µM | 27.8 µM | CNCCOc1cccc2c1[nH]c(=O)n2[C@H]1CC[C@@H](C(=O)Nc2ccc(C)c(OC)c2)CC1 [Example 309, Cis-N-(3-methoxy-4-methylphenyl)-4-{4-[2-(methylamino)ethoxy]-2-oxo-2,3-dihydro-1H-1,3-benzodiazol-1-yl}cyclohexane-1-carboxamide] | 15.6 µM
0.00294 µM | 28.5 µM | COc1cc(NC(=O)[C@H]2CC[C@@H](n3c(=O)[nH]c4c(C5=CCN(C)CC5)cccc43)CC2)ccc1C [Example 312, Cis-N-(3-methoxy-4-methylphenyl)-4-[4-(1-methyl-1,2,3,6-tetrahydropyridin-4-yl)-2-oxo-2,3-dihydro-1H-1,3-benzodiazol-1-yl]cyclohexane-1-carboxamide] | 11 µM
